Data taken from patent US20050075398A1, “Neuroprotectin D1 protects against cellular apoptosis, stroke damage, alzheimer's disease and retinal diseases” (priority 2003, published 2005).
Entries after “also recorded” stand apart in the source; their conditions may differ.

What was measured:
[1] = system: polymorphonuclear leukocyte infiltration (myeloperoxidase activity); test: Myeloperoxidase (MPO) activity assay in hippocampus and neocortex after MCA-O and reperfusion; assay type: in vivo, mouse; details: 1 h MCA-O, 48 h reperfusion
Method: Middle Cerebral Artery Occlusion (MCA-O) and reperfusion. Experimental protocols were reviewed and approved by the Institutional Animal Care and Use Committee of Louisiana State University Health Sciences Center, New Orleans. Mice (20-25 g body wt) were induced with 2% isoflurane in a mixture of 70% nitrous oxide and 30% oxygen. Anesthesia was maintained with 1% isoflurane. Temperature was maintained at 36.5-37.5° C. using a Harvard homeothermic blanket. P 10 polyethylene catheters were placed in the femoral artery and vein, and the blood pressure was monitored. Arterial blood was analyzed for PO2, PCO2, and pH after 1 h of ischemia and 30 min after the onset of reperfusion. The common carotid and external carotid arteries were temporarily ligated with a retracting suture, and the external carotid artery was dissected just proximal to its bifurcation. The occluding filament was introduced from the external carotid artery and advanced to the internal carotid artery. The AVM micro clip was removed. The filament was advanced so that the blunted tip lay in the anterior cerebral artery and the side of the filament occluded the origin of the middle cerebral artery (MCA). The stump of the external carotid artery was ligated, and tension on the retracting suture to the common carotid artery was gently released, restoring blood flow to the carotid system.
Occlusion of the middle cerebral artery (MCA-O) was maintained for 1 h; reperfusion was then established by delicate retrieval of the occluding suture from the arterial lumen, restoring blood flow to the region of the MCA. The mice were then killed, and the hippocampus and brain cortex rapidly dissected and frozen. Samples were kept at −80° C. until analysis. In some experiments, aspirin (7.5 mg/kg) was administered by gavage 15 min before MCA-O.
Polymorphonuclear leukocyte infiltration measurement by the myeloperoxidase (MPO) assay. Inhibition of leukocyte infiltration by 10,17S-docosatriene (NPD1) or docosahexaenoic acid (DHA) was measured in mouse hippocampus and neocortex after 1 h of middle cerebral artery occlusion (MCA-O) and 48 h of reperfusion. Lipids were delivered for each experiment by perfusion (250 nl/h) through Alzet minipumps implanted into the third ventricle. Hippocampus and neocortex from the ipsilateral (MCA-O-reperfusion) and contralateral sides were rapidly dissected. Brain samples were assayed for myeloperoxidase activity as described in Huang, J., Choudhri, T. F., Winfree, C. J., McTaggart, R. A., Kiss, S., Mocco, J., Kim, L. J., Protopsaltis, T. S., Zhang, Y., Pinsky, D. J., and Connolly Jr., E. S. (2000) Stroke 31, 3047-3053. Briefly, brain tissues were homogenized in 10 mM phosphate buffer (pH 7.4), then frozen and thawed with liquid N2 followed by sonication. Samples were precipitated at 10,000×g for 10 min, then aliquots of supernatants were added to 10 mM phosphate buffer (pH 6.0) and a substrate solution containing o-dianisidine (Sigma; St. Louis, Mo.) and 0.025% hydrogen peroxide, and finally incubated at 37° C. for 45 min. Spectrophotometric detection was obtained at 460 nm.

[2] = system: NF-κB-DNA binding activity; test: EMSA of NF-κB in hippocampus after MCA-O; assay type: in vivo, mouse; details: ipsilateral hippocampus; 1 h MCA-O, 2 h reperfusion; infused into third ventricle 3 h at 0.25 μl/h (NPD1 0.16 μg/ml)
Method: Electrophoretic mobility-shift assay (EMSA) of human AP1, HIF-1α, NF-κBp50/p65, and STAT-1α. Nuclear protein extracts (NPXTs) were prepared from one to three 3.5 cm-diameter wells of HN cells and quantitated. NPXTs (5 μg) derived from HN cells were incubated with[γ-^32P]-ATP (˜3000 Ci/mmol)-end-labeled AP1, HIF-1α, NF-κκBp50/p65, or STAT-1α consensus and mutant oligonucleotides in 5-μl volumes, reacted for 30 min on ice, analyzed on 5% or 10% acrylamide/90 mM Tris-borate pH 8.4, 1 mM EDTA (TBE) gels, dried onto 2-mm Whatman filter paper at 80° C. for 2 h, and phosphorimaged using a Typhoon Variable Mode Imager (Amersham Pharmacia Biotech, Piscataway, N.J. ).
FIGS. 7A, 7B, and 7C show mouse hippocampus after 1 h MCA-O was followed by 2 h reperfusion, where either vehicle, DHA, or 10,17S-docosatriene (NPD1) (0.16 μg/ml) was infused into the third ventricle for 3 h at 0.25 μl/h. […] NF-κB was increased over two fold in the ipsilateral hippocampus after MCA-O, and the infusion of either DHA or 10,17S-docosatriene (NPD1) inhibited ischemia-reperfusion-induced NF-κB activation by 28% and 48%, respectively (FIG. 7A).

COX-2 expression = test: COX-2 mRNA abundance in ipsilateral hippocampus after MCA-O; assay type: in vivo, mouse; details: 1 h MCA-O, 2 h reperfusion, infused into third ventricle (NPD1 0.16 μg/ml)
Method: COX-2 RNA abundance in hippocampus and HN cells. Abundance of human-specific COX-1 and COX-2 RNA message was assayed using RT-PCR as described in Bazan, N. G., and Lukiw, W. J. (2002) J. Biol. Chem. 277, 30359-30367.
To determine COX-1 and COX-2 expression, mRNA abundance in the ipsilateral hippocampus was measured. […] A 3-fold increase of COX-2 was seen due to MCA-O reperfusion (FIG. 7C). The infusion of the precursor DHA as well as its product 10,17S-docosatriene (NPD1) inhibited COX-2 expression by 14% and 52%, respectively.

Bcl-2 gene expression = test: HGU133 GeneChip DNA array in HN cells: Bcl-2; assay type: cell-based, human; details: Aβ42 25 μM, DHA 50 nM or NPD1 50 nM, 18 h, nsc = no significant change
Bcl-xL gene expression = test: HGU133 GeneChip DNA array in HN cells: Bcl-xL; assay type: cell-based, human; details: Aβ42 25 μM, DHA 50 nM or NPD1 50 nM, 18 h, nsc = no significant change
ARPE-19 cells = test: Hoechst staining, TNFα/H2O2 oxidative stress-induced apoptosis; assay type: cell-based, human; details: 50 nM added with TNFα 10 ng/ml plus H2O2 (400-800 μM); 14 h
Method: ARPE-19 cell culture and chemicals: ARPE-19 cells (L. M. Hjelmeland, ATCC # CRL-2302) were grown and maintained in DMEM-F12 medium supplemented with 10% FBS and incubated at 37° C. with a constant supply of 5% CO2. ARPE-19 cells are spontaneously transformed human retinal pigment epithelial cells that conserve cellular biological and functional properties. All chemicals were purchased from Sigma Chemical Co. (St. Louis, Mo.) unless otherwise indicated.
Hoechst staining: ARPE-19 cells were loaded with 2 μM Hoechst dissolved in a Locke's solution (Promega, Madison, Wis.) and incubated one h at 37° C. before imaging. Cells were then washed once with PBS and viewed using a Nikon DIAPHOT 200 microscope under UV fluorescence. Images were recorded by a Hamamatsu Color Chilled 3CCD camera and Photoshop 5.0 software, as described in Mukherjee, P. K., DeCoster, M. A., Campbell, F. Z., Davis, R. J. & Bazan, N. G. (1999) J. Biol. Chem. 274:6493-6498.
Several experimental conditions that result in reproducible oxidative-stress-induced apoptosis in ARPE-19 cells were tested. One condition chosen was the combination of TNFα with H2O2, both in relatively low concentrations. Typically 10 ng/ml of TNFα and 400-800 μM H2O2 led to marked increase in Hoechst-positive cells (Data not shown). Neither TNFα nor H2O2 alone triggered a significant effect under these conditions. (Data not shown).
Serum starvation made ARPE-19 cells more sensitive to oxidative stress-triggered apoptosis induced by TNFα/H2O2. Cells were grown in culture for 72 h in the presence of BSA (3.35 μM) with or without DHA (6.7 μM). Endogenous NPD1 formation was enhanced by BSA-DHA (FIG. 12A).
In the next experiment, confluent cells were starved for 8 h, then TNFα/H2O2 was added and incubated for 14 h before staining with Hoechst reagent. NPD1 (50 nM) was added at the time of adding TNFα/H2O2. […] When the TNFα concentration (10 ng/ml) was maintained and H2O2 concentration was decreased from 800 to 400 μM, fewer Hoechst-positive cells were seen. […] (Data not shown).

[3] = system: Aβ40 and Aβ42 peptide secretion; test: Aβ40 and Aβ42 peptide secretion by aging HN cells (Western immunoblot of medium); assay type: cell-based, human; details: aging HN cells cultured up to 8 weeks; DHA 50 nM or IL-1β 10 ng/ml continuously in medium
Method: Human Neural (HN) Cells. HN cells in primary culture, starting as primary spheroids (CC-2599, Clonetics, Walkersville, Md.), were grown in neural progenitor maintenance medium (NPMM) containing human epidermal and fibroblast growth factor, gentamicin/amphotericin (G/A1000), and neural survival factor-1 for up to 8 weeks. […] (Data not shown).
Additions of IL-1β and DHA to the Growth Medium. After 1 week of HN cell growth, IL-1β (10 ng/ml) or DHA (50 nM) was added to the NPMM culture medium.
To determine the effect of cytokine-mediated stress on aging HN cells, AP peptide release was assayed in the continuous presence in the culture medium of IL-1β, an inducer of reactive oxygen species (ROS) generation and oxidative stress as described in Lynch, A. M., Moore, M., Craig, S., Lonergan, P. E., Martin, D. S., Lynch, M. A. (2003) J. Biol. Chem., 278: 51075-51084; and Kaur, J., Dhaunsi, G. S., Turner, R. B. (2004) Med. Princ. Pract., 13: 26-29. Parallel experiments in aging HN cells were performed in the presence of control neuro-progenitor maintenance medium (NPMM) and the continuous presence of NPMM+DHA.

[4] = system: polymorphonuclear leukocyte infiltration; test: Zymosan-induced peritonitis, leukocyte infiltration; assay type: in vivo, mouse; details: zymosan-induced peritonitis, FVB mice; i.v. bolus 1.5 min before Zymosan A; lavage at 2 h
Method: The inhibition of leukocyte infiltration in zymosan-induced peritonitis by 4,17S-diHDHA and 10,17S-docosatriene (NPD1) was tested. […] Peritonitis was induced in 6- to 8-week-old male FVB mice (Charles River Laboratories) by peritoneal injection of 1 mg Zymosan A. The compounds 4,17S- and 10,17S-diHDHA were injected by intravenous bolus injection, 1.5 minutes before Zymosan A treatment. Two hours after induction of peritonitis, rapid peritoneal lavages were collected, and cell type enumeration was performed.

[5] = system: prostaglandin E2 (PGE2) formation; test: ELISA of PGE2 in hippocampus during reperfusion after MCA-O; assay type: in vivo, mouse; details: aspirin 7.52 mg/kg by gavage 15 min before MCA-O; C57BL/6 mice
Method: To confirm that the aspirin dose administered by gavage did reach the brain, the time course for prostaglandin E2, LTB4, and lipoxin A4 production was determined in the hippocampus in parallel assays. The time course of prostaglandin E2, leukotriene B4, and lipoxin A4 formation was followed in mouse hippocampus after 1-h middle cerebral artery occlusion (MCA-O), followed by reperfusion with (FIG. 2B) or without (FIG. 2A) aspirin treatment. Detection of the compounds was performed by sensitive and specific ELISA, in tandem, for prostaglandin E2 (PGE2), leukotriene B4 (LTB4), and lipoxins (LXA4) (Neogen, Lexington, Ky.). […] Maximal LTB4 was generated in aspirin-treated hippocampus by 8 h, as was the case with lipoxin A4, which also peaked within 8 h.

[6] = 1 μg or 3 μg over 48 h (dose of the value not stated)

Compound: CC/C=C\C/C=C\C/C=C\C/C=C\C/C=C\C/C=C\CCC(=O)O [DHA, docosahexaenoic acid]
- inhibition of myeloperoxidase activity, hippocampus ([1]; 2 μg over 48 h perfusion): 60%
- inhibition of myeloperoxidase activity, neocortex ([1]; 2 μg over 48 h perfusion): no inhibition
- inhibition of myeloperoxidase activity, hippocampus ([1]; 20 μg over 48 h perfusion): 72%
- inhibition of myeloperoxidase activity, neocortex ([1]; 20 μg over 48 h perfusion): 40%
- inhibition of myeloperoxidase activity, hippocampus ([1]; 200 μg over 48 h perfusion): 82%
- inhibition of myeloperoxidase activity, neocortex ([1]; 200 μg over 48 h perfusion): 73%
- inhibition of ischemia-reperfusion-induced NF-κB activation [2]: 28%
- inhibition of COX-2 expression (mRNA) (COX-2 expression): 14%
- Bcl-2 gene expression, fold change over untreated controls (Bcl-2 gene expression): +2.5 fold
- Bcl-xL gene expression, fold change over untreated controls (Bcl-xL gene expression): +1.5 fold

Compound: CCCCC/C=C\C[C@@H](O)/C=C/C=C/C=C\[C@@H](O)CCCC(=O)O [LTB4, leukotriene B4]
- inhibition of oxidative stress (TNFα/H2O2)-induced Hoechst-positive cells / apoptosis (ARPE-19 cells): partially inhibitory

Compound: O=C(O)CCC[C@H](O)\C=C/C=C/C=C/[C@H](O)C/C=C\CCCCCO [20-OH-LTB4]
- inhibition of oxidative stress (TNFα/H2O2)-induced Hoechst-positive cells / apoptosis (ARPE-19 cells): neither PGE2, LTB4, nor 20-OH-LTB4 (each at 50 nM) was able to elicit the degree of inhibition

Compound: 10,17S-docosatriene methyl ester [10,17S-docosatriene (NPD1) methyl ester]
- inhibition of ipsilateral myeloperoxidase activity, hippocampus [1, 6]: 49%
- inhibition of ipsilateral myeloperoxidase activity, neocortex [1, 6]: 97%

Compound: CCCCC[C@H](O)/C=C/[C@H]1[C@H](O)CC(=O)[C@@H]1C/C=C\CCCC(=O)O [PGE2, prostaglandin E2]
- inhibition of oxidative stress (TNFα/H2O2)-induced Hoechst-positive cells / apoptosis (ARPE-19 cells): neither PGE2, LTB4, nor 20-OH-LTB4 (each at 50 nM) was able to elicit the degree of inhibition

Compound: IL-1β: human recombinant interleukin 1-beta, cytokine stressor
- effect on Aβ peptide (Aβ40 and Aβ42) secretion [3]: enhanced

Compound: CCC=CCC(O)C=CC=CCC=CCC=CC=CC(O)CCC(=O)O (stereo not drawn) [4,17S-diHDHA]
- inhibition of polymorphonuclear leukocyte infiltration [4]: dose-dependent inhibition; also recorded: some inhibition

Compound: CC(=O)Oc1ccccc1C(=O)O [aspirin]
- effect on accumulation of PGE2 in hippocampus within 8 h of reperfusion [5]: inhibited

Compound: CCCCC/C=C\C/C=C\C/C=C\C/C=C\CCCC(=O)O [Arachidonic acid, arachidonic acid]
- inhibition of oxidative stress (TNFα/H2O2)-induced Hoechst-positive cells / apoptosis (ARPE-19 cells): partially effective
